This is an account of results in US9376392B2, “2-(tert-butoxy)-2-(7-methylquinolin-6-yl) acetic acid derivatives for treating AIDS” (Gilead Sciences, Inc., priority 2012, dated 2016).

This assay concerns HIV-IIIb (MT-4 cells). In words: Test A: Antiviral Assays in MT4 Cells. Particulars: MT4, 120 h, MT-4 cells infected with HIV-IIIb, 5 days of incubation, CellTiter-Glo readout. The format is cell-based. On the procedure: The antiviral properties of a compound disclosed herein may be determined using Test A described below.
Test A: Antiviral Assays in MT4 Cells
For the antiviral assay utilizing MT-4 cells, 0.4 μL of […] test concentration of 3-fold serially diluted compound in DMSO was added to 40 μL of cell growth medium (RPMI 1640, 10% FBS, 1% penicillin/Streptomycin, 1% L-Glutamine, 1% HEPES) in each well of 384-well assay plates (10 concentrations) in quadruplicate.
1 mL aliquots of 2×10e6 MT-4 cells are pre-infected for 1 and 3 hrs respectively, @ 37° C. with 25 μL (MT4) or of either cell growth medium (mock-infected) or a fresh 1:250 dilution of an HIV-IIIb concentrated ABI stock (0.004 m.o.i. for MT4 cells). Infected and uninfected cells are diluted in cell growth medium and 35 μL of 2000 (for MT4) cells is added to each well of the assay plates.
Assay plates were then incubated in a 37° C. incubator. After 5 days of incubation, […] 2× concentrated CellTiter-Glo™ Reagent (catalog #G7573, Promega Biosciences, Inc., Madison, Wis.) was added to each well of the assay plate. Cell lysis was carried out by incubating at room temperature for 2-3 min and then chemiluminescence was read using the Envision reader (PerkinElmer).
For `Cc1cc2c(ccc(=O)n2CC2CC2)c(-c2ccc3c4c(ccnc24)CCO3)c1[C@H](OC(C)(C)C)C(=O)O` (atropisomer, axis not shown) [Example 1, (S)-2-tert-Butoxy-2-((R)-1-(cyclopropylmethyl)-5-(2,3-dihydropyrano[4,3,2-de]quinolin-7-yl)-7-methyl-2-oxo-1,2-dihydroquinolin-6-yl)acetic acid], the EC50 (as a rule, the concentration needed to bring the measured effect to its halfway point) was determined as 0.409 µM.

Compound `Cc1cc2c(ccc(=O)n2Cc2cccc(S(C)(=O)=O)c2)c(-c2ccc3c4c(ccnc24)CCO3)c1[C@H](OC(C)(C)C)C(=O)O` (atropisomer, axis not shown) [Example 2, (S)-2-tert-Butoxy-2-((R)-5-(2,3-dihydropyrano[4,3,2-de]quinolin-7-yl)-7-methyl-1-(3-(methylsulfonyl)benzyl)-2-oxo-1,2-dihydroquinolin-6-yl)acetic acid] came in with an EC50 of 0.46 µM. The value for `Cc1cc2nc(OCc3cccc(C(F)(F)F)c3)ccc2c(-c2ccc3c4c(ccnc24)CCO3)c1[C@H](OC(C)(C)C)C(=O)O` (atropisomer, axis not shown) [Example 3, (S)-2-tert-Butoxy-2-((R)-5-(2,3-dihydropyrano[4,3,2-de]quinolin-7-yl)-7-methyl-2-(3-(trifluoromethyl)benzyloxy)quinolin-6-yl)acetic acid] was 0.123 µM; that for `Cc1cc2nc(OCc3cccc(S(C)(=O)=O)c3)ccc2c(-c2ccc3c4c(ccnc24)CCO3)c1[C@H](OC(C)(C)C)C(=O)O` (atropisomer, axis not shown) [Example 4, (S)-2-tert-Butoxy-2-((R)-5-(2,3-dihydropyrano[4,3,2-de]quinolin-7-yl)-7-methyl-2-(3-(methylsulfonyl)benzyloxy)quinolin-6-yl)acetic acid] was 0.0136 µM; that for `Cc1cc2c(ccc(=O)n2Cc2cccc(C(F)(F)F)c2)c(-c2ccc3c4c(ccnc24)CCO3)c1[C@H](OC(C)(C)C)C(=O)O` (atropisomer, axis not shown) [Example 5, (S)-2-tert-Butoxy-2-((R)-5-(2,3-dihydropyrano[4,3,2-de]quinolin-7-yl)-7-methyl-2-oxo-1-(3-(trifluoromethyl)benzyl)-1,2-dihydroquinolin-6-yl)acetic acid] was 0.0307 µM. `Cc1cc2nc(OCc3ccc(C(N)=O)cc3)ccc2c(-c2ccc3c4c(ccnc24)CCO3)c1[C@H](OC(C)(C)C)C(=O)O` (atropisomer, axis not shown) [Example 8, (S)-2-tert-Butoxy-2-((R)-2-(4-carbamoylbenzyloxy)-5-(2,3-dihydropyrano[4,3,2-de]quinolin-7-yl)-7-methylquinolin-6-yl)acetic acid]: the concentration for a half-maximal effect (EC50) was determined as 0.0368 µM.

Take `Cc1cc2nc(OCc3ccc(S(C)(=O)=O)cc3)ccc2c(-c2ccc3c4c(ccnc24)CCO3)c1[C@H](OC(C)(C)C)C(=O)O` (atropisomer, axis not shown) [Example 9, (S)-2-tert-Butoxy-2-((R)-5-(2,3-dihydropyrano[4,3,2-de]quinolin-7-yl)-7-methyl-2-(4-(methylsulfonyl)benzyloxy)quinolin-6-yl)acetic acid]: the midpoint of the response, the EC50, lay at 0.0212 µM.

`Cc1cc2nc(OCc3ccccc3S(C)(=O)=O)ccc2c(-c2ccc3c4c(ccnc24)CCO3)c1[C@H](OC(C)(C)C)C(=O)O` (atropisomer, axis not shown) [Example 10, (S)-2-tert-Butoxy-2-((R)-5-(2,3-dihydropyrano[4,3,2-de]quinolin-7-yl)-7-methyl-2-(2-(methylsulfonyl)benzyloxy)quinolin-6-yl)acetic acid]: the response was half-maximal at 0.00863 µM (EC50).

As to `Cc1cc2c(ccc(=O)n2Cc2ccc(C(F)(F)F)cc2)c(-c2ccc3c4c(ccnc24)CCO3)c1[C@H](OC(C)(C)C)C(=O)O` (atropisomer, axis not shown) [Example 11, (S)-2-tert-Butoxy-2-((R)-5-(2,3-dihydropyrano[4,3,2-de]quinolin-7-yl)-7-methyl-2-oxo-1-(4-(trifluoromethyl)benzyl)-1,2-dihydroquinolin-6-yl)acetic acid], a half-maximal effect (EC50) was put at 0.983 µM.

As for `Cc1cc2nc(OCc3ccccc3)ccc2c(-c2ccc3c4c(ccnc24)CCO3)c1[C@H](OC(C)(C)C)C(=O)O` (atropisomer, axis not shown) [Example 12, (S)-2-((R)-2-(Benzyloxy)-5-(2,3-dihydropyrano[4,3,2-de]quinolin-7-yl)-7-methylquinolin-6-yl)-2-tert-butoxyacetic acid], the response was half-maximal at 0.05 µM (EC50). The same measure for `Cc1cc2nc(OCc3ccc(OC(F)(F)F)cc3)ccc2c(-c2ccc3c4c(ccnc24)CCO3)c1[C@H](OC(C)(C)C)C(=O)O` (atropisomer, axis not shown) [Example 13, (S)-2-tert-Butoxy-2-((R)-5-(2,3-dihydropyrano[4,3,2-de]quinolin-7-yl)-7-methyl-2-(4-(trifluoromethoxy)benzyloxy)quinolin-6-yl)acetic acid]: 0.285 µM; for `Cc1cc2nc(OCc3cccc(OC(F)(F)F)c3)ccc2c(-c2ccc3c4c(ccnc24)CCO3)c1[C@H](OC(C)(C)C)C(=O)O` (atropisomer, axis not shown) [Example 14, (S)-2-tert-Butoxy-2-((R)-5-(2,3-dihydropyrano[4,3,2-de]quinolin-7-yl)-7-methyl-2-(3-(trifluoromethoxy)benzyloxy)quinolin-6-yl)acetic acid]: 0.217 µM; for `Cc1cc2c(ccc(=O)n2Cc2ccccc2OC(F)(F)F)c(-c2ccc3c4c(ccnc24)CCO3)c1[C@H](OC(C)(C)C)C(=O)O` (atropisomer, axis not shown) [Example 15, (S)-2-tert-Butoxy-2-((R)-5-(2,3-dihydropyrano[4,3,2-de]quinolin-7-yl)-7-methyl-2-oxo-1-(2-(trifluoromethoxy)benzyl)-1,2-dihydroquinolin-6-yl)acetic acid]: 0.359 µM. `Cc1cc2c(ccc(=O)n2Cc2ccc(OC(F)(F)F)cc2)c(-c2ccc3c4c(ccnc24)CCO3)c1[C@H](OC(C)(C)C)C(=O)O` (atropisomer, axis not shown) [Example 16, (S)-2-tert-Butoxy-2-((R)-5-(2,3-dihydropyrano[4,3,2-de]quinolin-7-yl)-7-methyl-2-oxo-1-(4-(trifluoromethoxy)benzyl)-1,2-dihydroquinolin-6-yl)acetic acid] showed a half-maximal effective concentration (EC50) of 1.61 µM. `Cc1cc2nc(OCc3ccc(S(N)(=O)=O)cc3)ccc2c(-c2ccc3c4c(ccnc24)CCO3)c1[C@H](OC(C)(C)C)C(=O)O` (atropisomer, axis not shown) [Example 17, (S)-2-tert-Butoxy-2-((R)-5-(2,3-dihydropyrano[4,3,2-de]quinolin-7-yl)-7-methyl-2-(4-sulfamoylbenzyloxy)quinolin-6-yl)acetic acid] returned an EC50 of 0.084 µM.

For `Cc1cc2c(ccc(=O)n2Cc2cccc(OC(F)(F)F)c2)c(-c2ccc3c4c(ccnc24)CCO3)c1[C@H](OC(C)(C)C)C(=O)O` (atropisomer, axis not shown) [Example 18, (S)-2-tert-Butoxy-2-((R)-5-(2,3-dihydropyrano[4,3,2-de]quinolin-7-yl)-7-methyl-2-oxo-1-(3-(trifluoromethoxy)benzyl)-1,2-dihydroquinolin-6-yl)acetic acid], the response was half-maximal at 0.185 µM (EC50).
